Columns and labels:
apo(a) gene = assay: Test on suppression of apo(a) gene expression (luciferase assay in HepG2 cells); format: cell-based, human; conditions: final concentration of 2 μM, 48 hours; for inhibition at 2 µM: Homo sapiens, relative to DMSO control group, read-out: Expression ratio (%) of apo(a) gene; for effect on expression of apo(a) gene (in words): conclusion from Table 5
Description: This test was carried out in accordance with the method described in "BIOCHEMICAL AND BIOPHYSICAL RESEARCH COMMUNICATIONS 227, 570-575[…] ARTICLE No. 1547". Described specifically, 2 μg/mL of an apo(a) gene (1441 base pairs) separated from the blood of normal volunteers was introduced into HepG2 cells (2×10^5 cells/mL), followed by culturing for 16 hours. Compound 4 was dissolved in DMSO (dimethylsulfoxide) to give a final concentration of 2 μM, to which the cultured cells were added. After culturing for further 48 hours, the expression of an apo(a) gene was measured regarding it as luciferases reaction and therefore, using luciferases assay system (Picagene) of Toyo Ink Mfg. Co., Ltd. for the analysis of gene expression. Namely, the cultured HepG2 cells were dissolved in a liquid to dissolve them therein. The resulting solution was centrifuged to obtain a supernatant. To 200 μl of the resulting supernatant was added 100 μl of a […] substrate, followed by mixing for 15 seconds. The luminescence was measured by a chemo-bioluminescence measuring device (Luminoscan RS) of Dainippon Pharmaceutical Co., Ltd. and expression ratio of an apo(a) gene was determined. The expression ratio of an apo(a) gene was calculated from the ratio to the luminescence of a group (control group) to which the same amount of DMSO had been added. As comparative compounds, pravastatin (HMG-COA reductase inhibitor, sterol synthesis inhibitor) and bezafibrate (fibrate series medicament, antihyperlipoproteinemic) were treated in a similar manner and provided for the test.

Lp(a) = assay: A test on lowering of the Lp(a) level in crab-eating monkeys; format: in vivo, crab-eating monkey; conditions: oral 30 mg/kg, three weeks; for Changing ratio (%) of Lp(a): male, 5 per group, Lp(a) level in blood, average value; for effect on Lp(a) level (in words): conclusion from Table 6
Description: Crab-eating monkeys (male, 2.4 to 3.9 kg in weight) were reared in groups, each group consisting of 5 monkeys. Compound 4 was suspended in a 0.5%, HPMC (hydroxypropylmethyl cellulose) solution in an amount of 30 mg/5 mL, whereby the test compound was prepared. To the specimen-administered group, the test compound was orally administered at a dose of 30 mg/kg. At the starting time of administration and three weeks after administration, the Lp(a) level in the blood of the tested animals was measured. For the measurement, a kit ("Immunosearch Lp(a) TIA") commercially available from Cosmo Bio Co., Ltd. was employed. Namely, according to the procedure as indicated in the kit, the measurement was carried out by adding 256 μl of a phosphate buffer to 7 μl of the serum and then adding the goat anti-human Lp(a) serum to the resulting mixture. For the measurement, a biochemical automatic analyzer ("Hitachi 7170"; product of Hitachi Ltd.) was employed. As a comparative compound, pravastatin and bezafibrate were treated similarly and provided for the test. From the measuring results, a changing ratio (%) of the Lp(a) level at the starting time of administration relative to that three weeks after the administration was determined with regards to each of the monkeys and the average value was expressed as an Lp(a) lowering ratio.

beagles = assay: Acute toxicity test in beagles; format: in vivo, beagle dog; conditions: 7-month old male beagles, 2 per group, fasted 16 hours; oral 2000 mg/kg in 0.5% HPMC
Description: After 7-month old beagles (male, each group consisting of 2 beagles) were fasted for 16 hours, Compound 4 suspended in a 0.5%, HPMC solution was orally administered at a dose of 2000 mg/kg.

Row | Compound | inhibition at 2 µM (apo(a) gene) | effect on expression of apo(a) gene (in words) (apo(a) gene) | Changing ratio (%) of Lp(a) (Lp(a)) | effect on Lp(a) level (in words) (Lp(a)) | death cases (beagles) | serious side effects (beagles)
1 | CC(C)(Oc1ccc(CCNC(=O)c2ccc(Cl)cc2)cc1)C(=O)O [Bezafibrate, bezafibrate] | -3% | reinforced the expression of the apo(a) gene | +8% | increased the Lp(a) level | – | –
2 | CC(C)(C)c1ccc(N2C[C@@H](COc3ccc(C(=O)O)cc3)CC2=O)cc1 [Compound 4, (S)-(+)-4-[1-(4-tert-butylphenyl)-2-pyrrolidon-4-yl]methoxybenzoic acid] | 24% | exhibited excellent effects for suppressing the expression of an apo(a) gene | -33% | exhibited excellent Lp(a) lowering effects | neither death case | nor serious side effects were recognized
3 | CC[C@H](C)C(=O)O[C@H]1C[C@H](O)C=C2C=C[C@H](C)[C@H](CC[C@@H](O)C[C@@H](O)CC(=O)O)[C@H]21 [Pravastatin, pravastatin] | -27% | reinforced the expression of the apo(a) gene | +35% | increased the Lp(a) level | – | –

— patent US6166036A, “Lp(a)-lowering agent and apolipoprotein (a) formation suppressing agent” (Taiho Pharmaceutical Co., Ltd., priority 1998, dated 2000)
